We go through 1 compound from US9802993B2, “Method for producing a cell for protein production by treating a cell overexpressing a taurine transporter with methotrexate” (Chugai Seiyaku Kabushiki Kaisha, priority 2007, dated 2017).

Holding throughout (assay type): cell-based, Chinese hamster
One data set concerns CHO DXB 11 s host cells. Put plainly: Sensitivity to MTX (survival rate) of parent host cells in medium without HT. The settings on record: 10 nM or 20 nM MTX added; CHO-S-SFM II/CD-CHO mixed medium without HT; FIG. 1. An excerpt: (§1) Into CHO DXB 11 s cells serving as host cells, pHyg-TauT expression plasmids (see Referential Example 2 described later, FIG. 5) were introduced by electroporation to prepare DXB 11 s/TauT host cells in which TauT was strongly expressed. Subsequently, sensitivity to MTX was compared between the DXB 11 s/TauT host cells and the DXB 11 s host cells which were the parent strain.

For another data set, the system named is DXB 11 s/TauT host cells. Put plainly: Sensitivity to MTX (survival rate) of host cells strongly expressing TauT in medium without HT. To be noted: 10 nM or 20 nM MTX added; CHO-S-SFM II/CD-CHO mixed medium without HT; FIG. 1.
Text: as §1

For data set [1], the system named is GC33/DXB11s, GC33/DXB11s/TauT and GC33/DXB11s/TauT/CSAD strains. Put plainly: Sensitivity to 200 nM MTX (survival rate) of anti-glypican-3 antibody-producing strains. The settings on record: MTX raised from 20 nM to 200 nM; CHO-S-SFM II/CD-CHO mixed medium; FIG. 2. An excerpt: Then, pPur-CSAD expression plasmids (see Referential Example 4 described later, FIG. 6) were co-introduced into the above GC33/DXB11s/TauT strain to prepare a GC33/DXB11s/TauT/CSAD strain in which CSAD was strongly expressed. Subsequently, sensitivity to MTX of the GC33/DXB11s/TauT strain and the GC33/DXB11 s/TauT/C SAD strain was compared with that of the parent GC33/DXB11s strain. Because the parent strain was a strain capable of producing an antibody in which an antibody gene had been amplified to 20 copies or more (relative to the value before MTX treatment) by treatment with 20 nM MTX, the above strains could stably proliferate in the CHO-S-SFM II/CD-CHO mixed medium to which 20 nM MTX had been added.

The test system of data set [2] is GC33/DXB11s/TauT/CSAD strain. Put plainly: Treatment with a high concentration of MTX: proliferation and antibody production ability. The settings on record: for amount of antibody production / number of viable cells: recovered, then cultured in 20 nM MTX, 15 mL tubes, initial 1×10^5 cells/mL, FIG. 4. Here is the method:
The GC33/DXB11s/TauT/CSAD strain, which was most MTX-resistant in Example 1, was subcultured in rotation culture for 28 days using the CHO-S-SFM II/CD-CHO mixed medium to which a high concentration of MTX (100 nM or 200 nM) had been added under the condition of 2×10^5 cells/mL in an initial stage, with the medium replaced every three to five days. […] By 14 days after that, i.e., on the 42nd day, the cells had begun to proliferate. The above two strains in which survival rates were recovered by subculture in the diluted medium (cells treated with 100 nM or 200 nM MTX) were cultured in 15 mL tubes using the CHO-S-SFM II/CD-CHO mixed medium in the presence of 20 nM MTX under the condition of 1×10^5 cells/mL in an initial stage. […] Also, the amount of antibody produced by the TauT/CSAD strain before treatment with a high concentration of MTX was 86 mg/L even when the number of viable cells grew to 19.6×10^5 cells/mL; thus, it was shown that the TauT/CSAD strain before treatment with a high concentration of MTX had the lowest production ability.

Regarding `CN(Cc1cnc2nc(N)nc(N)c2n1)c1ccc(C(=O)N[C@@H](CCC(=O)O)C(=O)O)cc1` [MTX, methotrexate], the figures for the survival rate result (with CHO DXB 11 s host cells; in the data set with DXB 11 s/TauT host cells; in data set [1]) were “a tendency of accelerated decrease in the survival rate was observed”, “reduction in the survival rate was suppressed at a level equivalent to the survival rate observed in the absence of MTX” and “the survival rates in all of the above strains decreased”, respectively. The cell proliferation entry in data set [2] (100 nM or 200 nM MTX, subculture in rotation culture for 28 days, FIG. 3) is “no cell proliferation was observed”. In addition, the entries for the “amount of antibody production” value in data set [2] (strain treated with 100 nM MTX) and in data set [2] (strain treated with 200 nM MTX) were 162 mg/L and 144 mg/L, respectively. For the same compound, the “number of viable cells” value was 22.3×10^5 cells/mL in data set [2] (strain treated with 100 nM MTX) and 18.0×10^5 cells/mL in data set [2] (strain treated with 200 nM MTX).
